The values below come from patent US11826430B2, “Anti-cancer nuclear hormone receptor-targeting compounds” (Nuvation Bio Inc., priority 2019, dated 2023).

In one assay the test system is HT-29 cells. As to the kind of experiment: Cell proliferation assay, CellTiter Glo. The format is cell-based. Particulars: Homo sapiens, HT-29, 72 h; cell growth inhibition, three days of treatment. As for the experimental part:
(§1) a. […] IC50s were determined using 8 concentrations/compound. […] Ki=IC50/(1+[L]/Kd) c.
(§2) Cells were plated at varying density in the respective growth medium in 96 well plates. 24 hr later, cells were treated, in triplicate or quadruplicate, with test articles prepared in a range of concentrations by series dilution of DMSO stock solutions in growth medium and incubated for three to seven days. The number of viable 22RV1 and HT-29 cells was measured using CellTiter Glo assay (CTG, Promega, Madison, WI) after three days of treatment. Cell viability data were plotted using GraphPad Prism (GraphPad Software, Inc., San Diego, CA). In addition, a nonlinear regression model with a sigmoidal dose response and variable slope within GraphPad Prism was used to calculate the IC50 value of individual test articles.

In a further assay the test system is 22RV1 cells. The assay can be described thus: Cell proliferation assay, CellTiter Glo. Particulars: Homo sapiens, 22Rv1, 72 h; cell growth inhibition, three days of treatment. The format is cell-based. As for the experimental part:
as §1, §2
(In general: In ATP-based viability assays light output follows the ATP content of the culture.)

A further assay has as its target Human recombinant PARP2 (Homo sapiens (Human), UniProt Q9UGN5). As to the kind of experiment: RBC HotSpot PARP2 radioisotope-based filter binding assay. The following applies: read-out: PARP2 IC50; 2.5 nM PARP2, histone H3, 10 μM 32P-NAD+.
The next assay concerns the target AR in LNCaP cytosol (Homo sapiens (Human), UniProt P10275, T878A). The assay can be described thus: AR binding assay (3H-methyltrienolone displacement). The following applies: read-out: AR IC50, 4° C. for 24 hours.
For a further assay, the target named is Human recombinant PARP1 (Homo sapiens (Human), UniProt P09874). The assay can be described thus: RBC HotSpot PARP1 radioisotope-based filter binding assay. The following applies: read-out: PARP1 IC50; 2.5 nM PARP1, histone H4, 10 μM 32P-NAD+.
Chain of Human recombinant PARP1 (P09874 whole entry): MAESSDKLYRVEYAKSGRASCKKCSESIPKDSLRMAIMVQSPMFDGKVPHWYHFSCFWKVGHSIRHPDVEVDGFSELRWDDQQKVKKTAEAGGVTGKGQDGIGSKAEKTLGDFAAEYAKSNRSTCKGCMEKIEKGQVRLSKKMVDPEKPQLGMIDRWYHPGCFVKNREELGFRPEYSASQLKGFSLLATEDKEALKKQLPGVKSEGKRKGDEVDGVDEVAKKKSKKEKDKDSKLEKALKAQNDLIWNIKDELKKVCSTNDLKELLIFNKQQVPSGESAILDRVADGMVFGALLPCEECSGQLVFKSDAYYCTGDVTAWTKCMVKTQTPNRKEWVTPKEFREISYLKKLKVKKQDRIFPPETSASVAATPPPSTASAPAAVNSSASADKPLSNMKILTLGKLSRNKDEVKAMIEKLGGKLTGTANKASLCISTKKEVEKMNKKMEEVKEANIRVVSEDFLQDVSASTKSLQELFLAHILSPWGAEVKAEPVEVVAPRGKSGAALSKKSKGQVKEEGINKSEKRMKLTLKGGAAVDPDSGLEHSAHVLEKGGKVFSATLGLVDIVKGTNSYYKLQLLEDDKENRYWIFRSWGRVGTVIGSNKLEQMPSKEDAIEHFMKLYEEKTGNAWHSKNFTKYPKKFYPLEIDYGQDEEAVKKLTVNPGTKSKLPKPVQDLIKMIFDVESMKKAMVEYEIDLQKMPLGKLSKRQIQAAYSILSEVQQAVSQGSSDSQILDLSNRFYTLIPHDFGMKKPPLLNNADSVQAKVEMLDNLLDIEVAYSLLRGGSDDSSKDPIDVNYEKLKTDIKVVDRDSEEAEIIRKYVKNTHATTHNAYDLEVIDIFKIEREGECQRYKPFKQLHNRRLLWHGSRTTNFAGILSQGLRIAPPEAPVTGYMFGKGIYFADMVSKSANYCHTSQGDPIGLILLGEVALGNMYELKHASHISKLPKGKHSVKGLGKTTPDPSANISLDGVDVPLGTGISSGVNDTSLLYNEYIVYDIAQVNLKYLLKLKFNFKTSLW

A value given as a limit tells only on which side of the number the result lay.

Chain of AR in LNCaP cytosol (P10275 whole entry T878A): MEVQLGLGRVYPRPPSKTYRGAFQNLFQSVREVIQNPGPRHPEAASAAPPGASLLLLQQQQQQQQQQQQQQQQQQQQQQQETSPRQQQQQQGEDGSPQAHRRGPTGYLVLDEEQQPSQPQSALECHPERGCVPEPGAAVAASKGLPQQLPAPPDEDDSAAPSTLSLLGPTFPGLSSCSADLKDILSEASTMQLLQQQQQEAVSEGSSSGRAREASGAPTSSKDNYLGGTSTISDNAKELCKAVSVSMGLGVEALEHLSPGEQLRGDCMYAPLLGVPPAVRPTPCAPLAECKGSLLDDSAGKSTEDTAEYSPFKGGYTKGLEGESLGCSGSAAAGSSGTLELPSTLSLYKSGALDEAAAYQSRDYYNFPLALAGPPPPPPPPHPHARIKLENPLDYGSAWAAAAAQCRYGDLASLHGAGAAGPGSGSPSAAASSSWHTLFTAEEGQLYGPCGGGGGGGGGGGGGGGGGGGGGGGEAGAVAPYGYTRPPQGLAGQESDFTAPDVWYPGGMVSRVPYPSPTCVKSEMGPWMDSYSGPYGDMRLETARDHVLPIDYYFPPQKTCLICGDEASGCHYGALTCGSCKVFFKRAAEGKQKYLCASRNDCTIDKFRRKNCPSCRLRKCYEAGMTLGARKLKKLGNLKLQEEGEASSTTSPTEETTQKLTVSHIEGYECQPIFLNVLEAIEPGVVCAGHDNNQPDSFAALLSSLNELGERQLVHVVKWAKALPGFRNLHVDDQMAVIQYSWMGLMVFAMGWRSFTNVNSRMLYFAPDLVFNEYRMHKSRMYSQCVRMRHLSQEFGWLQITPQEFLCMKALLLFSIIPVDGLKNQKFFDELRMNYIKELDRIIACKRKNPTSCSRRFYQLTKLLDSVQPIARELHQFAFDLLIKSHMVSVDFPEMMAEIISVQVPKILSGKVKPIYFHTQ
Chain of Human recombinant PARP2 (Q9UGN5 whole entry): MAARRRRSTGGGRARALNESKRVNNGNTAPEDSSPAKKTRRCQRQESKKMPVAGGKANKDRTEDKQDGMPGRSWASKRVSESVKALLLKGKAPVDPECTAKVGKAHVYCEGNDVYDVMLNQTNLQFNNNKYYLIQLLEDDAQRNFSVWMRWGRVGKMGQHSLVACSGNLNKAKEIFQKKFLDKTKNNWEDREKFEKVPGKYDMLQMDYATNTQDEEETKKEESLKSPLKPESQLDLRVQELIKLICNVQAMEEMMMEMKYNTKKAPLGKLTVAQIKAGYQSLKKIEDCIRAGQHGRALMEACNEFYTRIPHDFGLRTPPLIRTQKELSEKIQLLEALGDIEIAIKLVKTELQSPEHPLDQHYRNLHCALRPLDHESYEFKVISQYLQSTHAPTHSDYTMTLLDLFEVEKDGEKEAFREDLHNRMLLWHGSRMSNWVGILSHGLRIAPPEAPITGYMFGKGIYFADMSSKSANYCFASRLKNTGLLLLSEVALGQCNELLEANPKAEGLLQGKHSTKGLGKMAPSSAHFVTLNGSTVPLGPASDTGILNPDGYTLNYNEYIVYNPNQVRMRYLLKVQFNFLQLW
Procedure for AR in LNCaP cytosol: (§3) RBC HotSpot Poly(ADP-ribose) Polymerases 1 (PARP1) and Poly(ADP-ribose) Polymerases 2 (PARP2) Assays: The assay was conducted at Reaction Biology Corporation (RBC; Malvern, PA). The assay principle is radioisotope-based filter binding assay where incorporation of radioisotope-labeled NAD^+ into the substrate captured on filter is detected after washout free NAD^+. Data were analyzed using Excel and GraphPad Prism software for IC50 curve fits. Each assay was conducted with PJ34 as a positive control. PARP1 assay: Human recombinant PARP1 at a final concentration of 2.5 nM was combined with histone H4 (20 μM) and test articles at various concentrations in reaction buffer (50 mM Tris-HCL, pH 8.0, 50 mM NaCl, 10 mM MgCl2, 1 mM DTT, 1% DMSO, and 20 μg/mL activated DNA). The solution was inoculated for 20 min at room temperature and the reaction initiated by adding [adenylate-^32P]-Nicotinamide Adenine Dinucleotide, ^32P-NAD^+ at a final concentration of 10 μM. After incubation for 2 hrs at room temperature, the reaction mixture was filtered and washed with 0.75% phosphoric acid for radioactivity detection. • ii. PARP2 assay: Human recombinant PARP2 at a final concentration of 2.5 nM was combined with histone H3 (20 μM) and test articles at various concentrations in reaction buffer (50 mM Tris-HCL, pH 8.0, 50 mM NaCl, 10 mM MgCl2, 1 mM DTT, 1% DMSO, and 20 μg/mL activated DNA). The solution was inoculated for 20 min at room temperature and the reaction was initiated by adding [adenylate-^32P]-Nicotinamide Adenine Dinucleotide, ^32P-NAD^+ at a final concentration of 10 μM. After incubation for 2 hrs at room temperature, the reaction mixture was filtered and washed with 0.75% phosphoric acid for radioactivity detection. b. AR binding assay: AR in LNCaP cytosol was used for determining the binding affinity of test articles and the reference compound—progesterone (Sigma, Cat: E2785, St. Louis, MO). IC50s were determined using 8 concentrations/compound. Cytosol was plated at 200 μg/well (100 μL) into a 96-well conical polypropylene plate (Agilent, Cat: 5042-1385, Santa Clara, CA) and mixed with 3 μL of test compound. After adding 100 μL of ^3H-methyltrienolone (PerkinElmer, Cat: NET590250UC, San Jose, CA), the plate was sealed and shaken at 300 rpm at 4° C. for 24 hours. Post incubation, 100 μL of radioligand adsorption buffer containing 10 mM Tris-HCl, pH 7.4; 1.5 mM EDTA; 1 mM DTT; 0.25% charcoal; 0.0025% dextran was added to individual well. Plate was shaken for 15 min at 4° C. followed by centrifugation at 3000 rpm for 30 min at 4° C. 150 μL of supernatant was transferred into scint-tube (PerkinElmer, Cat: 6000192) and mixed with 2 mL of Ultima Gold Cocktail (PerkinElmer, Cat: 6013329). Radioactivity was counted using a TriCarb 2910 TR scintillation counter (PerkinElmer). Inhibition of the radioactivity by test articles were calculated using the equation below: % Inhibition=(1−(Assay well-Average_LC)/(Average_HC-Average_LC))×100%. IC50 values were calculated and graphed using the model “log(inhibitor) vs. response—Variable slope” included in GraphPad Prism 5 (San Diego, CA). […] Ki=IC50/(1+[L]/Kd) c.
Procedure for Human recombinant PARP1: as §3
Procedure for Human recombinant PARP2: as §3

In general, IC50 refers to the concentration at which inhibition is half-maximal. On to `Cn1ncnc1[C@H]1c2n[nH]c(=O)c3cc(F)cc(c23)N[C@@H]1c1ccc(N2C(=S)N(c3ccc(C#N)c(C(F)(F)F)c3)C(=O)C2(C)C)cc1` [Compound 1.2a, 4-(3-(4-((8S,9R)-5-fluoro-9-(1-methyl-1H-1,2,4-triazol-5-yl)-3-oxo-3,7,8,9-tetrahydro-2H-pyrido[4,3,2-de]phthalazin-8-yl)phenyl)-4,4-dimethyl-5-oxo-2-thioxoimidazolidin-1-yl)-2-(trifluoromethyl)benzonitrile], for which the IC50 with HT-29 cells was greater than 10000 nM; in the assay on 22RV1 cells, greater than 10000 nM; on Human recombinant PARP2, 0.3 nM; on AR in LNCaP cytosol it was greater than 3750 nM.
`C[C@](O)(CS(=O)(=O)C1CCN(C(=O)c2cc(Cc3n[nH]c(=O)c4ccccc34)ccc2F)CC1)C(=O)Nc1ccc(C#N)c(C(F)(F)F)c1` [Compound 1.4, (R)—N-(4-cyano-3-(trifluoromethyl)phenyl)-3-(1-(2-fluoro-5-((4-oxo-3,4-dihydrophthalazin-1-yl)methyl)benzoyl)piperidin-4-ylsulfonyl)-2-hydroxy-2-methylpropanamide]: the IC50 with HT-29 cells is greater than 30000 nM; in the assay on 22RV1 cells it was 21000 nM; at Human recombinant PARP2 it was 0.2 nM; at Human recombinant PARP1, 0.6 nM; on AR in LNCaP cytosol, 1030 nM.
Turning to `C[C@](O)(COC1CCN(C(=O)c2cc(Cc3n[nH]c(=O)c4ccccc34)ccc2F)CC1)C(=O)Nc1ccc(C#N)c(C(F)(F)F)c1` [Compound 1.5, (S)—N-(4-cyano-3-(trifluoromethyl)phenyl)-3-(1-(2-fluoro-5-((4-oxo-3,4-dihydrophthalazin-1-yl)methyl)benzoyl)piperidin-4-yloxy)-2-hydroxy-2-methylpropanamide], the IC50 in the assay with HT-29 cells is 20000 nM; with 22RV1 cells it was 14000 nM; at Human recombinant PARP2, 0.4 nM; on Human recombinant PARP1 it was 2 nM; on AR in LNCaP cytosol it was 6670 nM.
As for `CC1(C)C(=O)N(c2ccc(C#N)c(C(F)(F)F)c2)C(=S)N1CCNC(=O)c1cc(Cc2n[nH]c(=O)c3ccccc23)ccc1F` [Compound 1.6, N-(2-(3-(4-cyano-3-(trifluoromethyl)phenyl)-5,5-dimethyl-4-oxo-2-thioxoimidazolidin-1-yl)ethyl)-2-fluoro-5-((4-oxo-3,4-dihydrophthalazin-1-yl)methyl)benzamide], the IC50 was determined as 10000 nM in the assay on HT-29 cells; 6000 nM with 22RV1 cells; 0.6 nM on Human recombinant PARP2; 5 nM on Human recombinant PARP1; 94 nM on AR in LNCaP cytosol.
In the case of `CC1(C)C(=O)N(c2ccc([N+](=O)[O-])c(C(F)(F)F)c2)C(=O)N1CCNC(=O)c1cc(Cc2n[nH]c(=O)c3ccccc23)ccc1F` [Compound 1.7, N-(2-(5,5-dimethyl-3-(4-nitro-3-(trifluoromethyl)phenyl)-2,4-dioxoimidazolidin-1-yl)ethyl)-2-fluoro-5-((4-oxo-3,4-dihydrophthalazin-1-yl)methyl)benzamide], the IC50 in the assay on HT-29 cells worked out at 10000 nM; with 22RV1 cells it was 3000 nM; on Human recombinant PARP2, 1 nM; at Human recombinant PARP1 it was 7 nM; on AR in LNCaP cytosol, 4620 nM.
In the same order, the values of `CC1(C)C(=O)N(c2ccc(C#N)c(C(F)(F)F)c2)C(=O)N1CCNC(=O)c1cc(Cc2n[nH]c(=O)c3ccccc23)ccc1F` [Compound 1.8, N-(2-(3-(4-cyano-3-(trifluoromethyl)phenyl)-5,5-dimethyl-2,4-dioxoimidazolidin-1-yl)ethyl)-2-fluoro-5-((4-oxo-3,4-dihydrophthalazin-1-yl)methyl)benzamide] are 17000 nM, 5000 nM, 1 nM, 10 nM and 503 nM.
